{"source": "patent US11401255B2", "about": "“Small molecule activators of Parkin enzyme function” (Mayo Foundation for Medical Education and Research, priority 2016, dated 2022)", "key": {"HeLa mtKeima cells": {"system": "HeLa mtKeima cells", "assay": "Mitophagy assay (mtKeima HCI)", "type": "cell-based, human", "details": "5 μM, low-dose CCCP", "procedure": "HCI in 384-well plates was used to calculate the ratio of acidic to neutral mtKeima. Upon treatment with 10 μM CCCP, there was significant increase of the mtKeima ratio. Pre-treatment with compound 4 (dashed line, here shown 5 μM of compound 4) induced this also at low-dose CCCP concentrations while low dose CCCP alone (solid line) had only little effect on the ratio of acidic to neutral mtKeima.\nHeLa mtKeima cells were pre-treated for 2 h with 12 different doses of Compounds 1, 2, 3, 4, and 31 before low-dose CCCP was added (3 μM final concentration). 10 μM CCCP was added to positive control wells. Cells were imaged live after 4 h and 8 h of CCCP. Values were normalized to the positive and negative (3 μM CCCP) control values for each time point. Curve fitting was used to calculate EC50 values.\nTo confirm mitophagy, HeLa cells expressing the pH-sensitive, mitochondria-targeted reporter mitoKeima46 were employed. A characteristic shift in the excitation wavelength of mitoKeima upon lysosomal fusion was used to determine mitochondrial turnover using […]. For mitoKeima experiments (Kim et al., Mol. Neurodegen. (2016) 11:55), cells were seeded in DMEM media lacking phenol red […]. Hoechst counterstain was added as a 5× stock in 5 μL volume. […] Segmentation of cells was performed as above and for each region of interest the ratio of acidic and neutral mitoKeima was calculated. […]"}, "Parkin [1]": {"biological_target": "T1, Parkin (Homo sapiens (Human), UniProt O60260)", "T1 sequence (O60260 whole entry)": "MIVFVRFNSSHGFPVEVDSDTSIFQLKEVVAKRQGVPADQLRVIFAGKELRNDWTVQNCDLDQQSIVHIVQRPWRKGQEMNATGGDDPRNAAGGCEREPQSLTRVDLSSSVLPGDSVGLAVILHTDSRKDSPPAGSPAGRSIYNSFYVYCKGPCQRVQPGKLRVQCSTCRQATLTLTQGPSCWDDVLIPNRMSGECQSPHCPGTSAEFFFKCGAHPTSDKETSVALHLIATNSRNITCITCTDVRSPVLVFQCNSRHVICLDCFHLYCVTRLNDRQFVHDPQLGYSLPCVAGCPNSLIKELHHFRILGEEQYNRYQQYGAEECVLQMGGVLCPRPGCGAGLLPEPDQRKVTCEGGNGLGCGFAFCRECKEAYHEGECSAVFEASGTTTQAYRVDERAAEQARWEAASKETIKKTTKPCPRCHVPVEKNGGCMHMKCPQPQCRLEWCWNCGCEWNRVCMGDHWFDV", "assay": "In vitro E2 discharge assay", "type": "biochemical", "details": "Ub-loaded UbcH7, presence of PINK1, vs DMSO", "procedure": "(§1) FIGS. 15A-15H show Parkin activation in primary fibroblasts, neuronal cells and in vitro. Positive control (PC) cells were treated with DMSO and 10 μM of CCCP. Negative control (NC) cells were treated with 3.5 μM CCCP, some cells were left untreated (−). […] Vinculin was used as loading control. […] FIG. 15C: Human fibroblasts were directly converted to neurons and treated as in FIG. 15B. […] Beta III tubulin confirmed successful conversion of fibroblasts to iNeurons. FIG. 15D: Rat PC12 cells were treated as in FIG. 15A. Western blots show enhanced ubiquitylation of MFN2 and TOM70, and robust pSer65-Ub induction similar to PC, but not NC cells. FIG. 15E: In vitro E2 discharge assay. Recombinant Parkin was pre-incubated with compound 4 or DMSO as control and was mixed to Ub-loaded UbcH7. […] Control reactions were performed without PINK1 or Parkin. FIG. 15F: In vitro assay with isolated mitochondria from untreated or CCCP-treated HeLa cells lacking Parkin. Mitochondrial preparations were mixed with recombinant Parkin, E1, UbcH7, ATP and either compound 4 or DMSO as a control and incubated for the indicated times. […] Control samples were incubated in reaction mix without Parkin. […]\nAs the first readout for Parkin activity, E2 Ub discharge assays were performed, complementary to the Ub-charging assays of Parkin C431S in cells. […]"}, "Parkin [2]": {"biological_target": "T1, Parkin", "assay": "In vitro ubiquitylation assay with isolated mitochondria", "type": "biochemical", "details": "mitochondria from CCCP-treated HeLa cells lacking Parkin, vs DMSO", "procedure": "as §1\nThe in vitro assays with mitochondrial preparations were performed as follows. […] The mitochondrial pellet was resuspended in solution B and the protein concentration determined by BCA. […]"}}, "data": [{"smiles": "O=C(Cn1ccnc1-c1ccccn1)Nc1ccc(-c2ccccc2)cc1", "note": "[Compound 4]", "values": [{"measurement": "mitophagy flux (ratio of acidic to neutral mtKeima)", "setting": "HeLa mtKeima cells", "value": "enhanced mitophagy flux"}, {"measurement": "E2 discharge", "setting": "Parkin [1]", "value": "slightly more E2 discharge"}, {"measurement": "MFN1 ubiquitylation", "setting": "Parkin [2]", "value": "increased ubiquitylation"}]}]}
